Legend:
Format in all cases: biochemical
PDGFRB = biological target: T1, PDGFRB (Homo sapiens, UniProt P09619); assay: Z'-LYTE in vitro enzyme activity assay, PDGFRB; conditions: 100 μM ATP, 60 minutes, room temperature; read-out: IC50 detected by Z'-LYTE, PDGFRB
T1 construct: purchased Millipore
Protocol: (§1) The enzyme activity was measured by Z′-LYTE™ Detection Kinase Assay. The IC50 value of the compounds was used as an index to evaluate the inhibitory effect of the compounds on VEGFR2, FGFR1 and PDGFRB.
(§2) Recombinant human VEGFR2 and FGFR1 proteases were purchased from Life technology, PDGFRB Protease was purchased from Millipore.
(§3) Z-LYTE™ Kit Tyr1 and Tyr4 were purchased from Life technology. Multi-microplate reader, Envision (PerkinElmer) read board was used.
(§4) The test compounds were diluted 3 times with a concentration gradient, the final concentration was from 10 μM to 0.17 nM with a total of 11 concentrations, and each concentration had two parallel holes; the content of DMSO in the assay was 1%.
(§5) 40 nM PDGFRB protein kinase, 2 μM Tyr4 peptide, 100 μM ATP, 50 mM HEPES (pH 7.5), 10 mM MgCl2, 1 mM EGTA, 0.01% BRIJ-35, 2 mM MnCl2, 1 mM DTT. The detector plate was Black Proxiplate 384-Plus plate (PerkinElmer), the reaction was performed at room temperature for 60 minutes, and the reaction system was 10 μl.
(§6) The reaction was stopped by adding 5 μl of DV reagent B (1:128) to the kinase reaction solution and incubated at 23° C. for 60 minutes. The Envision instrument was used to read the plate.
(§7) The data was converted to phosphorylation rate and inhibition rate and the 4 parameter curve fitting (Model 205 in XLFIT5, iDBS) was used to get IC50 data of the compounds.

FGFR1 = biological target: T2, FGFR1 (Homo sapiens, UniProt P11362); assay: Z'-LYTE in vitro enzyme activity assay, FGFR1; conditions: 25 μM ATP, 60 minutes, room temperature; read-out: IC50 detected by Z'-LYTE, FGFR1
T2 construct: purchased Life technology
T2 sequence (P11362 22-822): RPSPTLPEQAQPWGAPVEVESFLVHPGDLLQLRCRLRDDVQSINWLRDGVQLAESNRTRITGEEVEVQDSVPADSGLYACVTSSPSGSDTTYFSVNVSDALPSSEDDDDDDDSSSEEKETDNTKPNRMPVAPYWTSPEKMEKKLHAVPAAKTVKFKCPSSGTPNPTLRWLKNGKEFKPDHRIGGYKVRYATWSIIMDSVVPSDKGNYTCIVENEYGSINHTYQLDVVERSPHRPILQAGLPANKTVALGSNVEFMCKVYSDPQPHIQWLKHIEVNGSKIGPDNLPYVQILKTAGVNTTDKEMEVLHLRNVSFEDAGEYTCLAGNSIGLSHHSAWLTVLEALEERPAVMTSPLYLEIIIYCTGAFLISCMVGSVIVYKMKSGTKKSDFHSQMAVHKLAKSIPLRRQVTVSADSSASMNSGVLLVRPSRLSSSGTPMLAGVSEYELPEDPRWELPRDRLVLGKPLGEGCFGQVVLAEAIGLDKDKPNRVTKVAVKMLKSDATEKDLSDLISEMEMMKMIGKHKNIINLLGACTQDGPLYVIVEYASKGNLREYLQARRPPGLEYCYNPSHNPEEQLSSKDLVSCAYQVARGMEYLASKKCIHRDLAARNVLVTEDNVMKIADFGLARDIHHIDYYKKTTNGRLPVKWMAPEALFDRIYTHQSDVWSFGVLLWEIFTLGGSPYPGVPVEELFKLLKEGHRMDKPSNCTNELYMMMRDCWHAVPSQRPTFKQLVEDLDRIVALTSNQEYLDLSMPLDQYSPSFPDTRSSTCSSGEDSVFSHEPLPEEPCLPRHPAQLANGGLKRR
Protocol: as §1, §2, §3, §4
as §5, with “1” for “40”, “FGFR1” for “PDGFRB”, “25” for “100”
as §6, §7

VEGFR2 = biological target: T3, VEGFR2 (Homo sapiens, UniProt P35968); assay: Z'-LYTE in vitro enzyme activity assay, VEGFR2; conditions: 100 μM ATP, 60 minutes, room temperature; read-out: IC50 detected by Z'-LYTE, VEGFR2
T3 construct: purchased Life technology
T3 sequence (P35968 20-1356): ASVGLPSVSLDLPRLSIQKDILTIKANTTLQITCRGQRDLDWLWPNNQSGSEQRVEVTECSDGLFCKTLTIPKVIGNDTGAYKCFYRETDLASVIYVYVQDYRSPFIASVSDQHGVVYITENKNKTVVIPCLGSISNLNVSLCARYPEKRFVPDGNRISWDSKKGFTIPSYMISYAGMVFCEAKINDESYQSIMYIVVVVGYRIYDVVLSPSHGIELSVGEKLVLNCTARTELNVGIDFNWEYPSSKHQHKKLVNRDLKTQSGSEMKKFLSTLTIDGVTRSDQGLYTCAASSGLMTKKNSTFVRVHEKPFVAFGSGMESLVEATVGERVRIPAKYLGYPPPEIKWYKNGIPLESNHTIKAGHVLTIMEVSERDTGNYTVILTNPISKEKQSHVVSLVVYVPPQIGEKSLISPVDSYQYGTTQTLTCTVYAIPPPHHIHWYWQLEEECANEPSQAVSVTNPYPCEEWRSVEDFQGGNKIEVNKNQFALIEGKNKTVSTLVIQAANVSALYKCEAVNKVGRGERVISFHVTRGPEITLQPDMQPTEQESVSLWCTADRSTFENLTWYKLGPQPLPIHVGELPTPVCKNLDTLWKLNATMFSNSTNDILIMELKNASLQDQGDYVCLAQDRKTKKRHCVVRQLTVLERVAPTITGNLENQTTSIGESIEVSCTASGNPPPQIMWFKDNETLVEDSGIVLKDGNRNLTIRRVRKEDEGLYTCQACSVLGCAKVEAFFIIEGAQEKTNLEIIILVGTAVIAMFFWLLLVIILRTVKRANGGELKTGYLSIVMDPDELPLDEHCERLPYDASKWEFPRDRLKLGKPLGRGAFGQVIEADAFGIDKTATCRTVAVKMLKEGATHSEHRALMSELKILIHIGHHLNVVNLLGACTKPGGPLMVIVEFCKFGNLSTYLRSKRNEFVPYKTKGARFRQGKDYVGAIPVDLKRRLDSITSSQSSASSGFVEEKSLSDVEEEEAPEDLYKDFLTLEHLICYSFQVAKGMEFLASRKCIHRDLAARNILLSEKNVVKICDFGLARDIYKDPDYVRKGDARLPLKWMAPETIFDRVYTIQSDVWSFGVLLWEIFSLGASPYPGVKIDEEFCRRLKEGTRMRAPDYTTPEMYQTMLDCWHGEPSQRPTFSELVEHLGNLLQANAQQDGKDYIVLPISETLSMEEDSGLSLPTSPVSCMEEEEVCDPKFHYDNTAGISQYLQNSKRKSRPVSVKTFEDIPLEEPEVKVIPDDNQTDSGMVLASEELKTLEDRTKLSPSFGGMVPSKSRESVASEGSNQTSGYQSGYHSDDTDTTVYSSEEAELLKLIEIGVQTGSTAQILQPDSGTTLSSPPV
Protocol: as §1, §2, §3, §4
3 nM VEGFR2 protein kinase, 2 μM Tyr1 peptide, 100 μM ATP, 50 mM HEPES (pH 7.5), 10 mM MgCl2, 1 mM EGTA, 0.01% BRIJ-35. The detector plate was Black Proxiplate 384-Plus plate (PerkinElmer), the reaction was performed at room temperature for 60 minutes, and the reaction system was 10 μl.
as §6, §7

T1 sequence (P09619 33-1106): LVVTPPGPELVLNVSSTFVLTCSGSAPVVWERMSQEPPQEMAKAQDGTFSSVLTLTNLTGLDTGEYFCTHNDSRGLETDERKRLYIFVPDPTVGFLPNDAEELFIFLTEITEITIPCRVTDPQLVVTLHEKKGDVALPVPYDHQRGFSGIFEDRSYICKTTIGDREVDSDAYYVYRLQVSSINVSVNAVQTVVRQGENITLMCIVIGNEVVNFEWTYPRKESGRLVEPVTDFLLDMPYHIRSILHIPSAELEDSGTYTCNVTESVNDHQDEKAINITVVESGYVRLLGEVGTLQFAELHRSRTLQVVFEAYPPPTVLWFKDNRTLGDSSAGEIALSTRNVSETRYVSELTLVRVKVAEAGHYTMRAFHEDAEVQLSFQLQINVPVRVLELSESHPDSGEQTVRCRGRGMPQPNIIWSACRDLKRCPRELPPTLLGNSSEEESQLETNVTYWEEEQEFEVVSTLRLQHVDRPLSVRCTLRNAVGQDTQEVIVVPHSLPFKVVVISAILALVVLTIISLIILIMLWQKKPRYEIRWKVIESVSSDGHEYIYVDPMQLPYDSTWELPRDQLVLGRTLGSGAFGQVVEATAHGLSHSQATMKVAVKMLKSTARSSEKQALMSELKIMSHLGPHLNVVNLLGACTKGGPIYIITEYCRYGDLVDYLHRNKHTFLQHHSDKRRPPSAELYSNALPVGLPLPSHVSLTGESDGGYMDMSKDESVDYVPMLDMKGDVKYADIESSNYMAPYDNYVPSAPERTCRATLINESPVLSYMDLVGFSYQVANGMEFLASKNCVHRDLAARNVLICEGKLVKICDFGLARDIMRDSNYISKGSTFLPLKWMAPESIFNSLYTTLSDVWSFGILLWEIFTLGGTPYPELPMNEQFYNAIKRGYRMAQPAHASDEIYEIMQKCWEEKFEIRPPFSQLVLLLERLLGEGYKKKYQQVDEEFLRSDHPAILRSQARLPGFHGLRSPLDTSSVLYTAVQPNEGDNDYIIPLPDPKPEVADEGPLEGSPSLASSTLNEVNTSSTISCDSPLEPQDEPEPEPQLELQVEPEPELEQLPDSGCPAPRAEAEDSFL

| Structure (SMILES) | IC50 (PDGFRB) [nM] | IC50 (FGFR1) [nM] | IC50 (VEGFR2) [nM] |
| --- | --- | --- | --- |
| O=C1NCOc2cc3nccc(Oc4ccc(NC(=S)NC5CC5)c(Cl)c4)c3cc21 [Example 45] | 200 to 1000 | 200 to 1000 | 200 to 1000 |
| COc1cc2nccc(Oc3ccc(NC(=S)NC4CC4)c(Cl)c3)c2cc1C(=O)N(C)C [Example 47] | 200 to 1000 | 200 to 1000 | 200 to 1000 |
| COc1cc2nccc(Oc3ccc(NC(=S)NC4CC4)c(Cl)c3)c2cc1C(=O)N1CCCC1 [Example 48] | 50 to 200 | 200 to 1000 | 200 to 1000 |
| COc1cc2nccc(Oc3ccc(NC(=S)NC4CC4)c(Cl)c3)c2cc1C(=O)N1CCCCC1 [Example 49] | 50 to 200 | 200 to 1000 | 200 to 1000 |
| COc1cc2nccc(Oc3ccc(NC(=S)N4CCN(C)CC4)c(Cl)c3)c2cc1C(N)=O [Example 51] | 50 to 200 | 200 to 1000 | 200 to 1000 |
| COc1cc2nccc(Oc3ccc(NC(=S)NC(C)C)c(Cl)c3)c2cc1C(N)=O [Example 52] | 50 to 200 | 200 to 1000 | < 50 |
| COc1cc2nccc(Oc3ccc(NC(=S)NC4CC4)c(Cl)c3)c2cc1C(=O)N1CC(F)(F)C1 [Example 53] | 50 to 200 | 200 to 1000 | 200 to 1000 |
| COc1cc2nccc(Oc3ccc(NC(=S)NC4CC4)c(Cl)c3)c2cc1C(=O)NC1CC1 [Example 54] | 200 to 1000 | 200 to 1000 | 50 to 200 |
| COc1cc2nccc(Oc3ccc(NC(N)=S)c(Cl)c3)c2cc1C(N)=O [Example 57] | 50 to 200 | 200 to 1000 | < 50 |
| COc1cc2nccc(Oc3ccc(NC(=S)NC4CC=C(F)CC4)c(Cl)c3)c2cc1C(N)=O (stereo not drawn) [Example 60] | 200 to 1000 | 200 to 1000 | 200 to 1000 |
| COc1cc2nccc(Oc3ccc(NC(=S)NC4CCC(F)(F)CC4)c(Cl)c3)c2cc1C(N)=O [Example 61] | 50 to 200 | 200 to 1000 | 200 to 1000 |
| COCCNC(=O)c1cc2c(Oc3ccc(NC(=S)NC4CC4)c(Cl)c3)ccnc2cc1OC [Example 62] | 200 to 1000 | 200 to 1000 | 50 to 200 |
| COc1cc2nccc(Oc3ccc(NC(=S)NCCCSC)c(Cl)c3)c2cc1C(N)=O [Example 63] | < 50 | 200 to 1000 | 50 to 200 |
| COc1cc2nccc(Oc3ccc(NC(=S)Nc4ccc(F)cc4)c(Cl)c3)c2cc1C(N)=O [Example 64] | < 50 | 200 to 1000 | 50 to 200 |
| COc1cc2nccc(Oc3ccc(NC(=S)Nc4ccccc4F)c(Cl)c3)c2cc1C(N)=O [Example 65] | < 50 | 200 to 1000 | 50 to 200 |
| COc1cc2nccc(Oc3ccc(NC(=S)N4CCC(F)(F)C4)c(Cl)c3)c2cc1C(N)=O [Example 66] | 200 to 1000 | 200 to 1000 | 50 to 200 |
| COc1cc2nccc(Oc3ccc(NC(=S)N4CCC(F)(F)CC4)c(Cl)c3)c2cc1C(N)=O [Example 67] | 200 to 1000 | 200 to 1000 | 50 to 200 |
| COc1cc2nccc(Oc3ccc(NC(=S)N4CCC4)c(Cl)c3)c2cc1C(N)=O [Example 68] | 50 to 200 | 50 to 200 | 50 to 200 |
| COc1cc2nccc(Oc3ccc(NC(=S)N4CC(O)C4)c(Cl)c3)c2cc1C(N)=O [Example 69] | 50 to 200 | 200 to 1000 | 50 to 200 |
| COc1cc2nccc(Oc3ccc(NC(=S)Nc4cnc(C)s4)c(Cl)c3)c2cc1C(N)=O [Example 71] | 50 to 200 | 200 to 1000 | 50 to 200 |
| COc1cc(Oc2ccnc3cc(OC)c(C(N)=O)cc23)ccc1NC(=S)NC1CC1 [Example 72] | 50 to 200 | 200 to 1000 | 50 to 200 |
| COc1cc2nccc(Oc3ccc(NC(=S)N4CC[C@@H](O)C4)c(Cl)c3)c2cc1C(N)=O [Example 73] | 200 to 1000 | 200 to 1000 | 50 to 200 |
| COc1cc2nccc(Oc3ccc(NC(=S)N4CC[C@H](O)C4)c(Cl)c3)c2cc1C(N)=O [Example 74] | 200 to 1000 | 200 to 1000 | 50 to 200 |

| Structure (SMILES) | IC50 (PDGFRB) [nM] | IC50 (FGFR1) [nM] | IC50 (VEGFR2) [nM] |
| --- | --- | --- | --- |
| COc1cc2nccc(Oc3ccc(NC(=S)NC4(C#N)CC4)c(Cl)c3)c2cc1C(N)=O [Example 75] | 200 to 1000 | 200 to 1000 | 200 to 1000 |
| COc1cc2nccc(Oc3ccc(NC(=S)NC4(C(F)(F)F)CC4)c(Cl)c3)c2cc1C(N)=O [Example 76] | 200 to 1000 | 200 to 1000 | 200 to 1000 |
| COc1cc2nccc(Oc3cc(Cl)c(NC(=S)NC4CC4)cc3F)c2cc1C(N)=O [Example 77] | 50 to 200 | 200 to 1000 | < 50 |
| COc1cc2nccc(Oc3ccc(NC(=S)NC4CC4)c(Cl)c3)c2cc1C#N [Example 80] | 200 to 1000 | 200 to 1000 | 50 to 200 |
| COc1cc2nccc(Oc3ccc(N4C(=O)CN(C)C4=S)c(Cl)c3)c2cc1C(N)=O [Example 81] | 50 to 200 | 200 to 1000 | 200 to 1000 |
| COc1cc2nccc(Oc3ccc(N4CC(=O)N(C)C4=S)c(Cl)c3)c2cc1C(N)=O [Example 82] | 50 to 200 | 200 to 1000 | 200 to 1000 |
| COc1cc2nccc(Oc3cc(F)c(NC(=S)NC4CC4)c(F)c3)c2cc1C(N)=O [Example 83] | 50 to 200 | 200 to 1000 | 50 to 200 |
| COc1cc2ncc(Cl)c(Oc3ccc(NC(=S)NC4CC4)c(Cl)c3)c2cc1C(N)=O [Example 84] | 200 to 1000 | 200 to 1000 | 200 to 1000 |
| COc1cc2nccc(Oc3ccc(NC(=S)N4CC(C)(O)C4)c(Cl)c3)c2cc1C(N)=O [Example 85] | 200 to 1000 | 200 to 1000 | 200 to 1000 |
| COc1cc2ncc(Cl)c(Oc3ccc(NC(=S)N4CCCC4)c(Cl)c3)c2cc1C(N)=O [Example 88] | 200 to 1000 | 200 to 1000 | 200 to 1000 |
| COc1cc2ncc(Cl)c(Oc3ccc(NC(=S)N4CC(F)(F)C4)c(Cl)c3)c2cc1C(N)=O [Example 89] | 200 to 1000 | 200 to 1000 | 200 to 1000 |
| COc1cc2nccc(Oc3cc(F)c(NC(=S)N4CC(F)(F)C4)c(F)c3)c2cc1C(N)=O [Example 90] | 200 to 1000 | 50 to 200 | 200 to 1000 |
| COc1cc2nccc(Oc3cc(F)c(NC(=S)N4CCCC4)c(F)c3)c2cc1C(N)=O [Example 91] | 200 to 1000 | 200 to 1000 | 50 to 200 |
| C#CCNC(=S)Nc1ccc(Oc2ccnc3cc(OC)c(C(N)=O)cc23)cc1Cl [Example 92] | 50 to 200 | 200 to 1000 | 50 to 200 |
| COc1cc2nccc(Oc3ccc(NC(=S)NC4CCOC4=O)c(Cl)c3)c2cc1C(N)=O (stereo not drawn) [Example 93] | 200 to 1000 | 200 to 1000 | 200 to 1000 |
| COc1cc2nccc(Oc3ccc(NC(=S)NC4CCNC4=O)c(Cl)c3)c2cc1C(N)=O (stereo not drawn) [Example 94] | 200 to 1000 | 200 to 1000 | 200 to 1000 |
| COc1cc2nccc(Oc3ccc(NC(=S)N4CC(F)(F)C4)cc3F)c2cc1C(N)=O [Example 101] | 50 to 200 | 200 to 1000 | 200 to 1000 |
| COC[C@@H]1CCCN1NC(=S)Nc1ccc(Oc2ccnc3cc(OC)c(C(N)=O)cc23)c(F)c1Cl [Example 105] | 200 to 1000 | 200 to 1000 | 200 to 1000 |
| COc1cc2nccc(Oc3ccc(NC(=S)N4CC[C@H](O)C4)c(Cl)c3F)c2cc1C(N)=O [Example 106] | 200 to 1000 | 50 to 200 | < 50 |
| COc1cc2nccc(Oc3ccc(NC(=S)N4CC[C@@H](F)C4)c(Cl)c3F)c2cc1C(N)=O [Example 108] | 200 to 1000 | 50 to 200 | 50 to 200 |
| COc1cc2nccc(Oc3ccc(NC(=S)N4CC[C@@H](O)C4)c(Cl)c3F)c2cc1C(N)=O [Example 111] | 200 to 1000 | 50 to 200 | 50 to 200 |
| COc1cc2nccc(Oc3ccc(NC(=O)N4CC[C@@H](F)C4)c(Cl)c3F)c2cc1C(N)=O [Example 113] | 200 to 1000 | 200 to 1000 | 200 to 1000 |
| COc1cc2nccc(Oc3ccc(NC(=O)N4CC[C@@H](O)C4)c(Cl)c3F)c2cc1C(N)=O [Example 115] | 200 to 1000 | 200 to 1000 | 200 to 1000 |
